Reference: patent US12171766B2, “Methods of treating patients suffering from brain injury and methods of increasing the value of the extended Glasgow Outcome Scale of patients suffering from brain injury” (VERINOS OPERATIONS GMBH, priority 2021, dated 2024)

Test: NOSTRA phase III trial: exposure control (pharmacokinetics), samples after end of infusion and 12 hours after end of infusion
Type: in vivo, human
Conditions: exposure control samples; no utilizable values for parent
Protocol: An exposure control was performed with samples collected after end of infusion and 12 hours after end of infusion. Due to the high sensibility of Ronopterin to oxidation, no utilizable values could be obtained for Ronopterin and, therefore, the first metabolite, 4-amino-dihydrobiopterin, was used as a surrogate. The mean absolute concentration for the first metabolite of Ronopterin was 1071 ng/mL at the end of the infusion and 476 ng/mL 12 hours later (56% elimination). The mean absolute value for the second Ronopterin metabolite was 52 ng/mL at the end of the infusion and 37 ng/mL 12 hours after end of infusion.

For `CC(O)C(O)C1CNc2nc(N)nc(N)c2N1` [Ronopterin, 4-Amino-(6R,S)-5,6,7,8-tetrahydro-L-biopterin], the sensibility to oxidation was “high”.
